According to the supplement of paper PMC10307832:

How the values were obtained:
Test in all cases: relative viability (nuclei count vs DMSO), 5 days (fraction); higher = more cells survive
[1] = tested on: SK-LU-1
Method in brief: (§1)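 Relative viability equals treated-well nuclei counts divided by vehicle-well nuclei counts. Counts came from 4× images of lung cancer cell lines grown in 1536-well plates for 5 days after pin-tool dosing on the day after seeding. Dosing used one drug alone or a fixed anchor-drug dose plus five library-drug doses (not always all listed) in √10 steps, and values are medians of duplicate plates.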

[2] = tested on: NCI-H1650
Method in brief: as §1

[3] = tested on: NCI-H1944
Method in brief: as §1

[4] = tested on: UMC-11
Method in brief: as §1

[5] = tested on: COR-L23
Method in brief: as §1

[6] = tested on: HARA
Method in brief: as §1

[7] = tested on: HCC-15
Method in brief: as §1

[8] = tested on: LC-2-ad
Method in brief: as §1

[9] = tested on: ChaGo-K-1
Method in brief: as §1

[10] = tested on: NCI-H2405
Method in brief: as §1

[11] = tested on: NCI-H1993
Method in brief: as §1

[12] = tested on: EMC-BAC-2
Method in brief: as §1

[13] = tested on: NCI-H23
Method in brief: as §1

[14] = tested on: NCI-H2009
Method in brief: as §1

[15] = tested on: NCI-H838
Method in brief: as §1

[16] = tested on: HCC-78
Method in brief: as §1

[17] = tested on: LK-2
Method in brief: as §1

[18] = tested on: A-427
Method in brief: as §1

[19] = tested on: ABC-1
Method in brief: as §1

[20] = tested on: HCC-366
Method in brief: as §1

[21] = tested on: NCI-H2023
Method in brief: as §1

[22] = tested on: NCI-H1793
Method in brief: as §1

[23] = tested on: NCI-H1734
Method in brief: as §1

[24] = tested on: NCI-H2228
Method in brief: as §1

Clc1ccc(Nc2nnc(Cc3ccncc3)c3ccccc23)cc1 [Vatalanib] + COc1cc2c(Oc3ccc(NC(=O)C4(C(=O)Nc5ccc(F)cc5)CC4)cc3F)ccnc2cc1OCCCN1CCOCC1 [Foretinib] (partner 0.25 µM)
relative viability ([1]; first compound 0.04 µM): 0.807 | relative viability ([1]; first compound 0.1265 µM): 0.741 | relative viability ([1]; first compound 0.4 µM): 0.979 | relative viability ([1]; first compound 1.265 µM): 0.877 | relative viability ([1]; first compound 4 µM): 0.809 | relative viability ([2]; first compound 0.04 µM): 1.22 | relative viability ([2]; first compound 0.1265 µM): 1.05 | relative viability ([2]; first compound 0.4 µM): 0.89 | relative viability ([2]; first compound 1.265 µM): 1 | relative viability ([2]; first compound 4 µM): 1.27 | relative viability ([3]; first compound 0.04 µM): 0.934 | relative viability ([3]; first compound 0.1265 µM): 0.891 | relative viability ([3]; first compound 0.4 µM): 0.936 | relative viability ([3]; first compound 1.265 µM): 0.892 | relative viability ([3]; first compound 4 µM): 0.87 | relative viability ([4]; first compound 0.04 µM): 1.12 | relative viability ([4]; first compound 0.1265 µM): 0.94 | relative viability ([4]; first compound 0.4 µM): 0.916 | relative viability ([4]; first compound 1.265 µM): 0.94 | relative viability ([4]; first compound 4 µM): 1.02 | relative viability ([5]; first compound 0.04 µM): 1.08 | relative viability ([5]; first compound 0.1265 µM): 0.827 | relative viability ([5]; first compound 0.4 µM): 1.15 | relative viability ([5]; first compound 1.265 µM): 1.04 | relative viability ([5]; first compound 4 µM): 0.92 | relative viability ([6]; first compound 0.04 µM): 0.853 | relative viability ([6]; first compound 0.1265 µM): 0.757 | relative viability ([6]; first compound 0.4 µM): 0.807 | relative viability ([6]; first compound 1.265 µM): 0.92 | relative viability ([6]; first compound 4 µM): 0.852 | relative viability ([7]; first compound 0.04 µM): 1 | relative viability ([7]; first compound 0.1265 µM): 1.06 | relative viability ([7]; first compound 0.4 µM): 1.02 | relative viability ([7]; first compound 1.265 µM): 0.996 | relative viability ([7]; first compound 4 µM): 1.03 | relative viability ([8]; first compound 0.04 µM): 0.999 | relative viability ([8]; first compound 0.1265 µM): 0.777 | relative viability ([8]; first compound 1.265 µM): 0.852 | relative viability ([8]; first compound 4 µM): 0.87 | relative viability ([9]; first compound 0.04 µM): 1 | relative viability ([9]; first compound 0.1265 µM): 0.916 | relative viability ([9]; first compound 0.4 µM): 0.976 | relative viability ([9]; first compound 1.265 µM): 0.881 | relative viability ([9]; first compound 4 µM): 0.893 | relative viability ([10]; first compound 0.04 µM): 1.04 | relative viability ([10]; first compound 0.1265 µM): 1.06 | relative viability ([10]; first compound 1.265 µM): 1.02 | relative viability ([10]; first compound 4 µM): 0.965 | relative viability ([11]; first compound 0.04 µM): 0.739 | relative viability ([11]; first compound 0.1265 µM): 0.745 | relative viability ([11]; first compound 0.4 µM): 0.806 | relative viability ([11]; first compound 1.265 µM): 0.739 | relative viability ([11]; first compound 4 µM): 0.75 | relative viability ([12]; first compound 0.04 µM): 0.826 | relative viability ([12]; first compound 0.1265 µM): 1.01 | relative viability ([12]; first compound 0.4 µM): 1.09 | relative viability ([12]; first compound 1.265 µM): 0.919 | relative viability ([12]; first compound 4 µM): 1.02 | relative viability ([13]; first compound 0.04 µM): 0.928 | relative viability ([13]; first compound 0.1265 µM): 0.945 | relative viability ([13]; first compound 0.4 µM): 0.931 | relative viability ([13]; first compound 1.265 µM): 0.796 | relative viability ([13]; first compound 4 µM): 1.02 | relative viability ([14]; first compound 0.04 µM): 1.22 | relative viability ([14]; first compound 0.1265 µM): 1.14 | relative viability ([14]; first compound 0.4 µM): 1.24 | relative viability ([14]; first compound 1.265 µM): 1.2 | relative viability ([14]; first compound 4 µM): 1.26 | relative viability ([15]; first compound 0.04 µM): 1.11 | relative viability ([15]; first compound 0.1265 µM): 1.03 | relative viability ([15]; first compound 0.4 µM): 1.13 | relative viability ([15]; first compound 1.265 µM): 1.04 | relative viability ([15]; first compound 4 µM): 1.01 | relative viability ([16]; first compound 0.04 µM): 0.531 | relative viability ([16]; first compound 0.1265 µM): 0.551 | relative viability ([16]; first compound 0.4 µM): 0.535 | relative viability ([16]; first compound 1.265 µM): 0.503 | relative viability ([16]; first compound 4 µM): 0.47 | relative viability ([17]; first compound 0.04 µM): 1.14 | relative viability ([17]; first compound 0.1265 µM): 1.19 | relative viability ([17]; first compound 0.4 µM): 1.29 | relative viability ([17]; first compound 1.265 µM): 1.6 | relative viability ([17]; first compound 4 µM): 1.5 | relative viability ([18]; first compound 0.04 µM): 1.06 | relative viability ([18]; first compound 0.1265 µM): 0.993 | relative viability ([18]; first compound 0.4 µM): 1.14 | relative viability ([18]; first compound 1.265 µM): 0.993 | relative viability ([18]; first compound 4 µM): 1.11 | relative viability ([19]; first compound 0.04 µM): 1.32 | relative viability ([19]; first compound 0.1265 µM): 1.11 | relative viability ([19]; first compound 1.265 µM): 1.18 | relative viability ([19]; first compound 4 µM): 0.989 | relative viability ([20]; first compound 0.04 µM): 0.85 | relative viability ([20]; first compound 0.1265 µM): 0.8 | relative viability ([20]; first compound 0.4 µM): 0.895 | relative viability ([20]; first compound 1.265 µM): 0.885 | relative viability ([20]; first compound 4 µM): 0.949 | relative viability ([21]; first compound 0.04 µM): 0.881 | relative viability ([21]; first compound 0.1265 µM): 0.974 | relative viability ([21]; first compound 0.4 µM): 1.04 | relative viability ([21]; first compound 1.265 µM): 0.753 | relative viability ([21]; first compound 4 µM): 1.04 | relative viability ([22]; first compound 0.04 µM): 0.769 | relative viability ([22]; first compound 0.1265 µM): 0.787 | relative viability ([22]; first compound 0.4 µM): 0.686 | relative viability ([22]; first compound 1.265 µM): 0.663 | relative viability ([22]; first compound 4 µM): 0.608 | relative viability ([23]; first compound 0.04 µM): 0.878 | relative viability ([23]; first compound 0.1265 µM): 0.833 | relative viability ([23]; first compound 0.4 µM): 0.912 | relative viability ([23]; first compound 1.265 µM): 0.736 | relative viability ([23]; first compound 4 µM): 0.782 | relative viability ([24]; first compound 0.04 µM): 0.941 | relative viability ([24]; first compound 0.1265 µM): 0.928 | relative viability ([24]; first compound 0.4 µM): 0.968 | relative viability ([24]; first compound 1.265 µM): 0.946 | relative viability ([24]; first compound 4 µM): 0.778
